# Entries after “also recorded” stand apart in the source; their conditions may differ.
# Test: Gravimetric moisture sorption (GMS)
# Assay type: physicochemical
# Details: 25±0.1° C.
# Method: Moisture sorption isotherms were recorded with an SPSx-1 μ moisture sorption analyzer (ProUmid, Ulm). The measurement cycle was started at ambient relative humidity (RH) of 30%. RH was then decreased to 5% in 5% steps, followed by a further decrease to 3% and to 0%. […] Finally, RH was increased to ambient relative humidity of 30% in 5% steps.
# The time per step was set to a minimum of 2 hours and a maximum of 6 hours. If an equilibrium condition with a constant mass of ±0.01% within 1 hour was reached before the maximum time for all examined samples the sequential humidity step was applied before the maximum time of 6 hours. If no equilibrium was achieved the consecutive humidity step was applied after the maximum time of 6 hours. The temperature was 25±0.1° C.
# Therefore, flibanserin hydrate of the present invention can be assigned as being non-hygroscopic.
smiles,measurement,setting,value
O=c1[nH]c2ccccc2n1CCN1CCN(c2cccc(C(F)(F)F)c2)CC1 [flibanserin hydrate],hysteresis between sorption and desorption isotherms,"GMS, 0 to 95% RH",no significant hysteresis
same,hygroscopicity / water uptake or loss (in words),"GMS, 0 to 95% RH, hydrate",neither significant water uptake nor loss; also recorded: non-hygroscopic
same,physical form after the GMS experiment (PXRD),after sorption/desorption cycle 0-95-0% RH,same PXRD
same,"mass difference between 0 and 95% RH (equilibrium mass change, GMS)",sorption/desorption cycle 0-95% RH,0.2 weight %
